32 molecules from the kinase profiling compilation of Christmann-Franck et al. (2016) can be followed below.

What all share (assay): radiometric filter-binding kinase assay, Kinase HotSpot
Holding throughout (details): compound 0.5 µM; ATP 10 µM

The subject of assay [1] is PRKCQ (human), Q04759 [P330L].
Assay [2] relates to MKNK1 (human), Q9BUB5 [T385D; 165-205 del].
The test system of assay [3] is MAP2K6 (human), P52564 [S207E/T211E].
In assay [4] the test system is FLT4 (human), P35916 [Q890H].
Sequence of FLT4 (human), P35916 [Q890H] (P35916 whole entry, looked up, stated change not applied): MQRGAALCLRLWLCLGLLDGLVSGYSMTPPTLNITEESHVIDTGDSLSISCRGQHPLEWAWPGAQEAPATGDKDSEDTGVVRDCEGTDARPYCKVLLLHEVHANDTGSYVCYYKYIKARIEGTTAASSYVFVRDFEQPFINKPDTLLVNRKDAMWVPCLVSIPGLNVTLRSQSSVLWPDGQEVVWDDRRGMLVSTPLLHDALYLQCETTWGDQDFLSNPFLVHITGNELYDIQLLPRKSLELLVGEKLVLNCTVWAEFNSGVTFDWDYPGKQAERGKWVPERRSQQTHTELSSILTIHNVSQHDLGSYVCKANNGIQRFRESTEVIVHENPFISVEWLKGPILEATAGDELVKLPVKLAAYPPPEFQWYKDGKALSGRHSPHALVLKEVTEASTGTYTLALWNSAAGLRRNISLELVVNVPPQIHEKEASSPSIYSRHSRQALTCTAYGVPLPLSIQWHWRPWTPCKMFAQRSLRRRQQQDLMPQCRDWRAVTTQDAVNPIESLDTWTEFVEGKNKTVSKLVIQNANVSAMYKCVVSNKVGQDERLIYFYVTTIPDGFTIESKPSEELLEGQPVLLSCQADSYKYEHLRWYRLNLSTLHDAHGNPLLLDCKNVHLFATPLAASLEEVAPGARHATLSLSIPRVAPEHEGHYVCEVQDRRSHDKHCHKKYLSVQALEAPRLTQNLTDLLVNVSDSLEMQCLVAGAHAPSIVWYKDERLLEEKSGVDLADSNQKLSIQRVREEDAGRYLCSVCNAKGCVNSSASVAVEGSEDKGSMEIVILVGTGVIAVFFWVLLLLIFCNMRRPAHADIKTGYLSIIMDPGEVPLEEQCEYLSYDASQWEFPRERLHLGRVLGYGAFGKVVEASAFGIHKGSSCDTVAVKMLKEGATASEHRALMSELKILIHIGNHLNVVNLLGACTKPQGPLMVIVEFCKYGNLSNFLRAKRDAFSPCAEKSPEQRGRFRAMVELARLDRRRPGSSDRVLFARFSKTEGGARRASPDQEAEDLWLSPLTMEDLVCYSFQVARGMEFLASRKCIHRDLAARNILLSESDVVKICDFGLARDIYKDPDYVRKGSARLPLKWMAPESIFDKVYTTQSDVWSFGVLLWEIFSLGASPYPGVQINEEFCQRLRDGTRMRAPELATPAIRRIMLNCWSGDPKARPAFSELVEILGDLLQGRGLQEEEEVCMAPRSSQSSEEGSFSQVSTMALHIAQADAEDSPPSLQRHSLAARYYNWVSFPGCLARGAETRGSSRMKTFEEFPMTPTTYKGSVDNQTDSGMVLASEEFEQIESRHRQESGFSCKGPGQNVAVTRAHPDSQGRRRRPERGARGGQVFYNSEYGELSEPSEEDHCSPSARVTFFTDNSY

Molecules are shown by their SMILES.

Sequence of MAP2K6 (human), P52564 [S207E/T211E] (P52564 whole entry S207E/T211E, looked up): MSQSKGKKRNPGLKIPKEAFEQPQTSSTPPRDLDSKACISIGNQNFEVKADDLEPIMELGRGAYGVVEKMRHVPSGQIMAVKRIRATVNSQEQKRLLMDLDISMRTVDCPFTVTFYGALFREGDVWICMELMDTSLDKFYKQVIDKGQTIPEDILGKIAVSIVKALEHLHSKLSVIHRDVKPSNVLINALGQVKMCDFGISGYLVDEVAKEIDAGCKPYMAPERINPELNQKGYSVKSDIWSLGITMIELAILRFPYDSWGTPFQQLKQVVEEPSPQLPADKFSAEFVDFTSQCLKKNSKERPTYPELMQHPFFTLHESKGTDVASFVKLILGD
Sequence of MKNK1 (human), Q9BUB5 [T385D; 165-205 del] (Q9BUB5 whole entry, looked up, stated change not applied): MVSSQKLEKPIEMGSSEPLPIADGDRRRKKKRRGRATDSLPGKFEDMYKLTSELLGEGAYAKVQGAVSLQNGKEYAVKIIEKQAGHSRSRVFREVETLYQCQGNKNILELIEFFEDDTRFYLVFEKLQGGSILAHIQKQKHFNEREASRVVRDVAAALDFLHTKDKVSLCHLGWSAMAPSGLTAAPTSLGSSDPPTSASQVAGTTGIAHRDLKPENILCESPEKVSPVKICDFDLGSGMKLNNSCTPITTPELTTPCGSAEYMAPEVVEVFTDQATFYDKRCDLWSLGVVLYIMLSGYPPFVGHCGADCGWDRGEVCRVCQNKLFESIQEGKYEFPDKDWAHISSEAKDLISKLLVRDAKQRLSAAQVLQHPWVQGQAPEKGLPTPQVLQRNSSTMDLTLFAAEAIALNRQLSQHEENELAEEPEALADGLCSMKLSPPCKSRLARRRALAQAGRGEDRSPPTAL
Sequence of PRKCQ (human), Q04759 [P330L] (Q04759 whole entry P330L, looked up): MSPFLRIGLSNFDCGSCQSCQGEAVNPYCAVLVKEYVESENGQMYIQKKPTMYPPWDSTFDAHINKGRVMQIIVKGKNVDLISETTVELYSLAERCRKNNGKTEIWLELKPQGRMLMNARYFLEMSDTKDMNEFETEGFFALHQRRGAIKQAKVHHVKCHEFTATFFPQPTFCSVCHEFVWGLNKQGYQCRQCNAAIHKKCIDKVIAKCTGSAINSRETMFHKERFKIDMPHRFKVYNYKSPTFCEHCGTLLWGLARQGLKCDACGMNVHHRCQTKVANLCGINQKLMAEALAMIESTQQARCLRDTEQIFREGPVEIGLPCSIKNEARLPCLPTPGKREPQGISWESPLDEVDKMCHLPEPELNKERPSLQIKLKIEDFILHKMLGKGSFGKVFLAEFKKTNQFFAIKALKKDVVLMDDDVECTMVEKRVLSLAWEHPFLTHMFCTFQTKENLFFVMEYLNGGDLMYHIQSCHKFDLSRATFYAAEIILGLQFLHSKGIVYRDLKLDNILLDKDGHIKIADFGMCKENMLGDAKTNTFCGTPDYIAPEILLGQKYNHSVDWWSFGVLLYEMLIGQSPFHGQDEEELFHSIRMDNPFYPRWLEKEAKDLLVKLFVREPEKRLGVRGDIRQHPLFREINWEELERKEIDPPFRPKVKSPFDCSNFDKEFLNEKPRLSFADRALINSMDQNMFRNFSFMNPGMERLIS

For `O=S(=O)(c1cccc2cnccc12)N1CCCNCC1`, the residual activity in assay [1] stood at 89.9%; in assay [2], 91.8%; in assay [3], 95.6%.

Turning to `Cn1cc(/C=C2\C(=O)Nc3ccc(S(N)(=O)=O)cc32)c2ccccc21`, the residual activity in assay [4] worked out at 65.1%; in assay [1] it was 103%; in assay [2] it was 74.1%; in assay [3], 116%.

As for `O=C1Nc2cc(Br)ccc2/C1=C1/Nc2ccccc2/C1=N\O`, the residual activity in assay [4] amounted to 50.8%; in assay [1], 105%; in assay [2], 102%; in assay [3] it was 98.2%.

Take `O=C1NC(=O)/C(=C/c2ccc3c(c2)OC(F)(F)O3)S1`: the residual activity was determined as 107% in assay [4], 101% in assay [1], 93.1% in assay [2] and 92.3% in assay [3].

Consider `O=C(CCCc1ccc(-c2ccccc2F)cc1)Nc1ccc(O)cc1`, for which the residual activity stood at 99.3% in assay [4], 107% in assay [1], 111% in assay [2] and 97.5% in assay [3].

Take `Cc1ccc(NC2=CC(=O)c3sc(C)nc3C2=O)cc1`: the residual activity in assay [4] worked out at 95.7%; in assay [1], 93%; in assay [2], 117%; in assay [3] it was 90.4%.

`CC(=O)O/N=C1\C(=C2\C(=O)Nc3cc(Br)ccc32)Nc2ccccc21`: the residual activity came out at 93.7% in assay [4], 72% in assay [1], 95.2% in assay [2] and 87.2% in assay [3].

On to `O=C1NC(=O)C(c2cn(CCCn3ccnc3)c3ccccc23)=C1Nc1ccccc1`, for which the residual activity in assay [4] was determined as 95.8%; in assay [1] it was 37.2%; in assay [2], 99.3%; in assay [3] it was 103%.

Turning to `Cn1sc(=O)n(Cc2ccccc2)c1=O`, the residual activity in assay [4] worked out at 86.8%; in assay [1], 100%; in assay [2], 98.6%; in assay [3], 94.9%.

With `c1ccc(-c2n[nH]cc2-c2ccnc3ccccc23)nc1`, the residual activity in assay [4] was determined as 92.2%; in assay [1], 115%; in assay [2], 75.9%; in assay [3], 138%.

Take `O=C1Cc2c([nH]c3ccc([N+](=O)[O-])cc23)-c2ccccc2N1`: the residual activity in assay [4] came out at 77.8%; in assay [1] it was 98.2%; in assay [2], 76.9%; in assay [3], 98.3%.

Regarding `Cc1ccc(S(=O)(=O)/C=C/C#N)cc1`, the residual activity was found to be 96.5% in assay [4], 100% in assay [1], 99.4% in assay [2] and 98.4% in assay [3].

For `COc1ccc(-c2cnc3c(-c4ccsc4)cnn3c2)cc1`, the residual activity came out at 94.1% in assay [4], 98.7% in assay [1], 87.1% in assay [2] and 95.9% in assay [3].

As for `CCN1/C(=C/C(C)=O)Sc2ccc(OC)cc21`, the residual activity was 99.7% in assay [4], 95.9% in assay [1], 119% in assay [2] and 86.7% in assay [3].

Take `O=c1c(-c2ccc(F)cc2)c(-c2ccncc2)[nH]n1-c1ccc(Cl)cc1`: the residual activity in assay [4] is 91.5%; in assay [1], 119%; in assay [2], 93.9%; in assay [3], 79.4%.

As to `Oc1ccc(Nc2nc(-c3ccc(Cl)cc3)cs2)cc1`, the residual activity in assay [4] was found to be 101%; in assay [1] it was 123%; in assay [2], 98.9%; in assay [3], 94%.

Regarding `Cc1ccc(Nc2nccc(N(C)c3ccc4c(C)n(C)nc4c3)n2)cc1S(N)(=O)=O`, the residual activity amounted to 93.1% in assay [1], 102% in assay [2] and 98.3% in assay [3].

Regarding `CC[n+]1c(/C=C/N(C)c2ccccc2)n(-c2ccccc2)c2ccc(-c3nc4ccccc4s3)cc21`, the residual activity in assay [4] was determined as 90.9%; in assay [1], 94.6%; in assay [2] it was 102%; in assay [3], 103%.

With `O=c1cc(N2CCNCC2)oc2c(-c3ccccc3)cccc12`, the residual activity worked out at 104% in assay [4], 117% in assay [1], 107% in assay [2] and 96.2% in assay [3].

On to `CC(C)c1nn(-c2c(Cl)cccc2Cl)c2nc(Cc3ccc(OCCO)cc3)nc(O)c12`, for which the residual activity in assay [4] came out at 103%; in assay [1] it was 97.3%; in assay [2], 110%; in assay [3], 92.7%.

For the molecule `Nc1n[nH]c2nnc(-c3c(-c4ccccc4)nn4ccccc34)cc12`, the residual activity in assay [4] worked out at 89.9%; in assay [1] it was 79.9%; in assay [2], 98.5%; in assay [3], 90.9%.

Turning to `O=c1cc(N2CCOCC2)oc2c1ccc1ccccc12`, the residual activity in assay [4] is 112%; in assay [1], 90.6%; in assay [2] it was 95%; in assay [3], 94.1%.

For `CCN(CC)CCNC(=O)c1c(C)[nH]c(/C=C2\C(=O)Nc3ccc(F)cc32)c1C`, the residual activity in assay [1] turned out to be 63.5%; in assay [2] it was 99.3%; in assay [3], 75.9%.

On to `O=S(=O)(NCCNC/C=C/c1ccc(Br)cc1)c1cccc2cnccc12`, for which the residual activity in assay [4] was determined as 108%; in assay [1], 104%; in assay [2], 93.4%; in assay [3], 81.3%.

Take `N#C/C(=C1/Nc2ccccc2S1)c1ccnc(NCCc2cccnc2)n1`: the residual activity in assay [4] turned out to be 86.1%; in assay [1], 104%; in assay [2], 90.2%; in assay [3] it was 92.5%.

Regarding `O=c1[nH]c2ccccc2n1C1CCN(Cc2ccc(-c3nc4cc5[nH]cnc5cc4nc3-c3ccccc3)cc2)CC1`, the residual activity turned out to be 98.7% in assay [4], 96.4% in assay [1], 104% in assay [2] and 101% in assay [3].

Take `O=C1NC(=O)C(c2c[nH]c3ccccc23)=C1c1c[nH]c2ccccc12`: the residual activity was 35.2% in assay [4], 33.8% in assay [1], 115% in assay [2] and 98% in assay [3].

On to `Clc1ccc(Nc2nnc(Cc3ccncc3)c3ccccc23)cc1`, for which the residual activity in assay [4] worked out at 62.8%; in assay [1] it was 73.5%; in assay [2], 98.5%; in assay [3] it was 95.3%.

With `Cc1cc2ncc(-c3ccccc3)nc2cc1C`, the residual activity in assay [4] is 115%; in assay [1] it was 97%; in assay [2], 80.3%; in assay [3] it was 91.1%.

As to `CN(C)C[C@H]1CCn2c(c(C3=C(c4cn(C)c5ccccc45)C(=O)NC3=O)c3ccccc32)C1`, the residual activity came to 114% in assay [4], 12.7% in assay [1], 100% in assay [2] and 109% in assay [3].

`N#Cc1c(NC(=O)c2cccc3ccccc23)sc2c1CCCC2`: the residual activity was 89.8% in assay [4], 106% in assay [2] and 98.1% in assay [3].

In the case of `C#Cc1cccc(Nc2ncnc3cc(OCCOC)c(OCCOC)cc23)c1`, the residual activity in assay [1] came out at 77.2%; in assay [3] it was 94.2%.
